Columns and labels:
saline-drinking SHRSP = assay: Stroke and cerebrovascular damage in saline-drinking SHRSP; format: in vivo, rats; conditions: 100 mg/kg/day
Text: Fifteen male, 9 weeks of age, saline-drinking SHRSP were included in the experiment.

[1] = Form H content of dried solids by X-ray powder diffraction (XPRD); format: physicochemical; conditions: for Estimated Weight Percent of Form H / Form H Peak Area 12° Two Theta Peak: dried solids from methyl ethyl ketone crystallization
Method: The weight percent of the diepoxide or 11,12-epoxide in each sample is given in Tables C-6A and C-6B, respectively. A micro-flea magnetic stirrer was added to each scintillation vial along with 1 mL of methyl ethyl ketone. The vials were loosely capped and the solid dissolved by heating to reflux on a hot plate with magnetic stirring. Once the solids were dissolved, the solutions were allowed to cool to room temperature on the hot plate. Magnetic stirring was maintained during the cooling period. After the solutions reached room temperature, the solids were collected by vacuum filtration and immediately analyzed by X-ray powder diffraction (XPRD). The solids were then placed in a 100°C oven and dried for one hour at ambient pressure. The dried solids were analyzed by XPRD for Form H content by monitoring the area of the Form H diffraction peak at about 12.1 degrees two theta. All XPRD diffraction patterns were recorded using an Inel Multipurpose Diffractometer. Table C-6A
The peak intensities have been normalized for ease of comparison. No Form H was detected for the dried samples corresponding to the methyl ethyl ketone crystallizations performed at doping levels of 0 and 1%. Form H was detected in the dried samples corresponding to the methyl ethyl ketone crystallizations performed at doping levels of 3 and 5%. The area for the Form H diffraction peak at about 12.1 degrees two theta and the estimated Form H content for each sample are given in Table C-6C below. Table C-6C
The peak intensities have been normalized for ease of comparison. No Form H was detected for the dried samples corresponding to the methyl ethyl ketone crystallizations performed at doping levels of 0, 1% and 5%. Form H was detected in the dried samples corresponding to the methyl ethyl ketone crystallization performed at a doping level of 10%. The area for the Form H diffraction peak at 12.1 degrees two theta and estimated Form H content for each sample are given in Table C-6D. Table C-6D
Table C-7B reports the weight fraction of Form H measured in materials dried using either a fluid bed (LAB-LINE/P.R.L. Hi-Speed Fluid Bed Dryer, Lab-Line Instruments, Inc.) or a vacuum oven (Baxter Scientific Products Vacuum Drying Oven, Model DP-32). […] Table C-7B

[2] = 0% 11,12-epoxide in starting eplerenone mixture
[3] = 0% diepoxide in starting eplerenone mixture
[4] = 1% 11,12-epoxide in starting eplerenone mixture
[5] = 1% diepoxide in starting eplerenone mixture
[6] = 3% diepoxide in starting eplerenone mixture
[7] = 5% 11,12-epoxide in starting eplerenone mixture
[8] = 5% diepoxide in starting eplerenone mixture
[9] = 10% 11,12-epoxide in starting eplerenone mixture

COC(=O)[C@@H]1CC2=CC(=O)CC[C@]2(C)[C@@]23O[C@@H]2C[C@@]2(C)[C@@H](CC[C@@]24CCC(=O)O4)[C@H]13 [Eplerenone, Pregn-4-ene-7,21-dicarboxylic acid, 9,11-epoxy-17-hydroxy-3-oxo-, γ-lactone, methyl ester, (7α, 11α, 17β)-]
proteinuria (saline-drinking SHRSP): 38 ± 18 mg/day | severe hypertension (SBP) (saline-drinking SHRSP; Figure A-12): 237 ± 3 mmHg | signs of stroke (saline-drinking SHRSP; n=7): no signs of stroke up to 18.5 weeks of age | Weight Percent Form H (XPRD) ([1]; cooling rate (0) 1.5°C/min, endpoint (0) 25°C, 100.8% eplerenone seeded with Form H, analyzed by DSC): 100 Weight Percent | Weight Percent Form H (XPRD) ([1]; cooling rate (0) 1.5°C/min, endpoint (0) 25°C, 100.8% eplerenone seeded with Form H, analyzed by XPRD): 77 Weight Percent | Weight Percent Form H (XPRD) ([1]; cooling rate (+) 3°C/min, cooling endpoint (+) 45°C, impurity level (+) 89.3% purity starting material): 29 Weight Percent | Weight Percent Form H (XPRD) ([1]; cooling rate (-) 0.1°C/min, cooling endpoint (+) 45°C, impurity level (+) 89.3% purity starting material): 31 Weight Percent | Weight Percent Form H ([1]; cooling rate High, end point High, impurity level High, drying: High Fluid Bed): 25% | Weight Percent Form H ([1]; cooling rate High, end point High, impurity level High, drying: Low Fluid Bed): 4.7% | Weight Percent Form H ([1]; cooling rate High, end point High, impurity level High, drying: Vacuum Oven): 29% | Weight Percent Form H ([1]; cooling rate Low, end point Low, impurity level Low, drying: Low Fluid Bed): 5.5% | Estimated Weight Percent of Form H [1, 2]: None Detected | Form H Peak Area 12° Two Theta Peak [1, 2]: None Detected | Estimated Weight Percent of Form H [1, 3]: None Detected | Form H Peak Area 12° Two Theta Peak [1, 3]: None Detected | Estimated Weight Percent of Form H [1, 4]: None Detected | Form H Peak Area 12° Two Theta Peak [1, 4]: None Detected | Estimated Weight Percent of Form H [1, 5]: None Detected | Form H Peak Area 12° Two Theta Peak [1, 5]: None Detected | Estimated Weight Percent of Form H [1, 6]: 10% | Form H Peak Area 12° Two Theta Peak [1, 6]: 1168 | Estimated Weight Percent of Form H [1, 7]: None Detected | Form H Peak Area 12° Two Theta Peak [1, 7]: None Detected | Estimated Weight Percent of Form H [1, 8]: 30% | Form H Peak Area 12° Two Theta Peak [1, 8]: 4175 | Estimated Weight Percent of Form H [1, 9]: 10-15% | Form H Peak Area 12° Two Theta Peak [1, 9]: 1541

Reference: EP1289507B1, “USE OF AN ALDOSTERONE ANTAGONIST FOR THE TREATMENT OR PROPHYLAXIS OF ALDOSTERONE-MEDIATED PATHOGENIC EFFECTS” (priority 2000, dated 2001)
